Measurements from patent US8927598B2, “Treating oncogenic Ras driven cancers” (Duke University, priority 2008, dated 2015).

Legend:
[1] = system: pancreatic cancer cell line; test: Tumor growth in SCID-beige mice of pancreatic cancer cell lines stably infected with siRNA plasmid; format: in vivo, human; conditions: cells expressing the siRNA
Procedure: Methods for creating stably infected cell lines are set below:
Day 1 • Morning—split a 10 cm plate of confluent 293T/17 cells (ATCC CRL-11268) 1:6 in αMEM supplemented with 10% Fetal Calf Serum (FCS) (no antibiotics) into a 10 cm plate so as to be 40-50% confluent at time of transfection.
Day 2 • Morning—mix in tissue culture hood in microcentrifuge tube: 12 μg pCL-10A1, 3 μg pSUPER-RETRO-PURO plasmid (OligoEngine, Seattle, Wash.) engineered to encode eNOS, RNA, NRas siRNA or HRas siRNA, and serum free media to 200 μl total volume. Tap tube side gently to mix and incubate at room temperature 15-45 minutes. Add dropwise to 293T/17 cells with micropipette and incubate overnight at 37° C.
Day 3 • Morning—repeat transfection protocol from day 2. Once the transfection mix is added to the cells, it must be incubated for at least 8 hours. Evening—remove media and replace with 6 ml of cell specific media of cells to be infected.
Day 4 • Morning—split a confluent 10 cm plate of pancreatic cancer cell line to be infected in cell type specific media so that they will reach 25-35% confluency the following morning.
Day 5 • Morning—aspirate media in a 10 ml syringe, attach 0.45 μm acrodisc filter to the bottom of the syringe. Filter the media into a 15 ml conical tube. […]
Method of testing pancreatic cancer cell line for tumor growth is set forth below: • 1. Expand pancreatic cancer cells stably infected with pSUPER-RETRO-PURO plasmid (OligoEngine) engineered to encode eNOS siRNA, NRas siRNA, or HRas siRNA to a total count of at least 1×10^7 cells/mouse, typically 4-8 15 cm tissue culture dishes at full confluency (number of dishes determined by cell size). • 2. […] Weigh each mouse for baseline reading and track tumor progression over the weeks to months by measuring large and small diameters and extrapolating tumor volume utilizing the equation: Tumor Volume=(small diameter)^2[…](large diameter/2).

human NRas = test: Knockdown of NRas expression, immunoblot; format: cell-based
Description: (§1) The siRNA of SEQ ID NO: 2 is produced as follows: Complementary oligonucleotides obtained from Integrated DNA Technologies (Coralville, USA) and annealed together were cloned into the Hind III and Bgl II sites of pSUPER-RETRO (OligoEngine, Seattle, Wash.). The sense strand of this insert is identified in the Sequence Listing as SEQ ID NO: 8. Transcription of this sequence by RNA polymerase produces an shRNA having the sequence identified in the Sequense Listing as SEQ ID NO: 9. This is processed using Dicer complex to remove the hairpin to give the double stranded RNA sequence of SEQ ID NO: 2 which specifically knocks down the expression of human NRas.
A test for determining that NRas expression is reduced is by immunoblot by using commercially available NRas antibody.

human HRas = test: Knockdown of HRas expression, immunoblot; format: cell-based
Description: as §1, with “3” for “2”, “6.” for “8.”, “7.” for “9.”, “HRas.” for “NRas.”
A test for determining that HRas expression is reduced is by immunoblot by using commercially available HRas antibody.

human eNOS = test: Knockdown of eNOS expression, immunoblot; format: cell-based
Description: The siRNA of SEQ ID NO:1 is produced as follows: Complementary oligonucletides obtained from Integrated DNA Technologies (Coralville, USA) and annealed together were cloned into the Hind III and Bgl II sites of pSUPER-RETRO (OligoEngine, Seattle, Wash.). The sense strand of this insert is identified in the Sequence Listing as SEQ ID NO: 4. Transcription of this sequence by RNA polymerase produces an shRNA having the Sequence Listing as SEQ ID NO: 5. This is processed using Dicer complex to remove the hairpin to give the double stranded RNA sequence of SEQ ID NO: 1 which specifically knocks down the expression of human eNOS Exemplary dosage is 100-1600 micrograms based on a clinical trial of the siRNA compound AGN211745.
A test for determining that eNOS expression is reduced is by immunoblot by using commercially available phosphor-S1177 eNOS antibody.

[2] = system: human pancreatic cell line MiaPaCa-2; test: Tumor growth of MiaPaCa-2 cells injected into SCID-beige mice given L-NAME in drinking water; format: in vivo; conditions: L-NAME 0.5 g/liter in drinking water, vs untreated drinking water
Description: Eight SCID-beige immunocompromised mice. (The Jackson Laboratory, Bar Harbor, Me.). were each injected simultaneously with one million cells of the human pancreatic cell line MiaPaCa-2 (available from the ATCC, identified as ATCC CRL-1420). Then 4 mice were provided with drinking water supplemented with L-NAME at a concentration of 0.5 g/liter and 4 were provided with drinking water that was not supplemented. Measurements were taken at the site of the injection to calculate tumor volume. Results are shown in FIG. 1 which is a graph of Tumor Volume vs. Time in days after injection where the diamonds denote measurements on untreated mice and the triangles denote measurements on L-NAME fed mice.

In the case of “SEQ ID NO: 2: novel siRNA generated by the applicant that knocks down the expression of human NRas (CAAGAAGAGUACAGUGCCAUG; listed as RNA, chemistry not given here; listed as Homo sapiens)”, the “Tumor initiation and growth of cancer cell lines in mice” value (“Tumor initiation and growth” below) [1] is reported as “inhibits tumor growth” and the “Knockdown of expression of NRas proteins” value (human NRas) is reported as “efficiently knocks down”.
In the case of “SEQ ID NO: 3: published siRNA (Yang, G., et al., Oncogene 22, 5694-5701 (2003)) that knocks down the expression of human HRas (GGCAAGAGUGCGCUGACCAUC; listed as RNA, chemistry not given here; listed as Homo sapiens)”, the “Tumor initiation and growth” value [1] is reported as “inhibits tumor growth” and the “Knockdown of expression of HRas proteins” value (human HRas) is reported as “efficiently knocks down”.
With “SEQ ID NO: 1: novel siRNA generated by the applicant that knocks down the expression of human eNOS (AAGAGUUAUAAGAUCCGCUUC; chemistry not given here; listed as Homo sapiens)” the “Knockdown of expression of human eNOS” value (human eNOS) was “efficiently knocks down” and the “Tumor initiation and growth” value [1] was “blocks tumor initiation and growth”.
With `COC(=O)[C@@H](N)CCCNC(=N)N[N+](=O)[O-]` [L-NAME, N^G-nitro-L-arginine methyl ester] the “Tumor growth (tumor volume vs. time in days after injection)” value [2] was “Tumors grew more slowly” and the “Reduction in tumor size at termination of the experiment” value ([2]; p<0.01) was roughly 3 fold.
